In patent US5744339A, “Thiomethylene group-containing aldehyde cysteine and serine protease inhibitors” (Cephalon, Inc., priority 1996, dated 1998):
pIC50: −log10 of the molar value.

Tests used:
Assay type in all cases: biochemical
cathepsin L = target: T1, cathepsin L (Homo sapiens, UniProt P07711); assay: Inhibition of cathepsin L (cysteine protease) activity; conditions: 0.006 mM Cbz-Phe-Arg-AMC, pH 6.0; read-out: Cat L IC50
T1 construct: purchased Calbiochem 219402
Protocol: (§1) To evaluate inhibitory activity, stock solutions (40 times concentrated) of each compound to be tested were prepared in 100% anhydrous DMSO and 5 μL of each inhibitor preparation were aliquoted into each of three wells of a 96-well plate. Calpain I, prepared by a modification of the method of W. J. Lee et al. (Biochem. Internatl. 22: 163-171 (1990)), was diluted into assay buffer (i.e., 50 mM Tris, 50 mM NaCl, 1 mM EDTA, 1 mM EGTA, and 5 mM β-mercaptoethanol, pH 7.5 including 0.2 mM Succ-Leu-Tyr-MNA) and 175 μL aliquoted into the same wells containing the independent inhibitor stocks, as well as to positive control wells containing 5 μL DMSO, but no compound. To start the reaction, 20 μL of 50 mM CaCl2 in assay buffer was added to all wells of the plate, excepting three, which were used as background signal baseline controls. Substrate hydrolysis was monitored every 5 minutes for a total of 30 minutes using a Fluoroskan II fluorescence plate reader. Substrate hydrolysis in the absence of inhibitor was linear for up to 15 minutes.
(§2) Inhibition of calpain I activity was calculated as the percent decrease in the rate of substrate hydrolysis in the presence of inhibitor relative to the rate in its absence. Comparison between the inhibited and control rates was made within the linear range for substrate hydrolysis. For screening, compounds were tested at 10 μm. Compounds having 50% inhibition at 10 μM were considered active. The IC50s of inhibitors (i.e., the concentration yielding 50% inhibition) were determined from the percent decrease in the rates of substrate hydrolysis in the presence of five to seven different concentrations of the test compound. The results were plotted as % inhibition versus log inhibitor concentration and the IC50 was calculated from linear regression of the data.
Additionally, the order of reagents added to the plate was altered because both enzymes are constitutively active. Following inhibitor addition to the plates, appropriate 2× concentrated stock dilutions of the enzyme preparations were made in assay buffer and 10 ul added to each well.
The assay was initiated by addition of 100 ul of 2× concentrated stock dilution of substrate in assay buffer. Substrate hydrolysis was monitored using a Fluoroskan II (ex=390 nm; em=460 nm).

thrombin = target: T2, thrombin (Homo sapiens, UniProt P00734); assay: Inhibition of thrombin (serine protease) activity; conditions: 10 μM inhibitor; 25 μM Bz-Phe-Val-Arg-AMC, pH 7.5; read-out: Thrombin % I @ 10 μM
T2 construct: purchased Sigma Chem. Co. T-7009
Protocol: (§3) Additionally,because α-chymotrypsin is not a calcium sensitive enzyme and is constitutively active, following addition of inhibitor stocks to the 96 well plates, 100 μl of a 2-fold concentrated stock of enzyme in dilution buffer was first added and the reaction started by addition of 10 μl of a 2-fold concentrated stock of substrate in assay buffer. Substrate hydrolysis was monitored every 5 minutes up to 30 minutes using a Fluoroskan II ([…]). The result is expressed as inhibition of α-chymotrypsin at 10 μM.
Inhibition of thrombin (Sigma Chem. Co. Cat. #T-7009) was evaluated as described for chymotrypsin except that the assay was performed in 50 mM Tris, 10 mM CaCl2, pH 7.5 and the substrate was 25 μM Bz-Phe-Val-Arg-AMC (Bachem cat#I-1080).

cathepsin B = target: T3, cathepsin B (Homo sapiens, UniProt P07858); assay: Inhibition of cathepsin B (cysteine protease) activity; conditions: 0.1 mM Cbz-Phe-Arg-AMC, pH 6.0; read-out: Cat B IC50
T3 construct: purchased Calbiochem 219364
Protocol: To evaluate inhibitory activity, stock solutions (40 times concentrated) of each compound to be tested were prepared in 100% anhydrous DMSO and 5 μL of each inhibitor preparation were aliquoted into each of three wells of a 96-well plate. Calpain I, prepared by a modification of the method of W. J. Lee et al. (Biochem. […] To start the reaction, 20 μL of 50 mM CaCl2 in assay buffer was added to all wells of the plate, excepting three, which were used as background signal baseline controls. Substrate hydrolysis was monitored every 5 minutes for a total of 30 minutes using a Fluoroskan II fluorescence plate reader. Substrate hydrolysis in the absence of inhibitor was linear for up to 15 minutes. Inhibition of calpain I activity was calculated as the percent decrease in the rate of substrate hydrolysis in the presence of inhibitor relative to the rate in its absence. Comparison between the inhibited and control rates was made within the linear range for substrate hydrolysis. For screening, compounds were tested at 10 μm. Compounds having 50% inhibition at 10 μM were considered active. […] The results were plotted as % inhibition versus log inhibitor concentration and the IC50 was calculated from linear regression of the data. […] Additionally, the order of reagents added to the plate was altered because both enzymes are constitutively active. Following inhibitor addition to the plates, appropriate 2× concentrated stock dilutions of the enzyme preparations were made in assay buffer and 10 ul added to each well. The assay was initiated by addition of 100 ul of 2× concentrated stock dilution of substrate in assay buffer. Substrate hydrolysis was monitored using a Fluoroskan II (ex=390 nm; em=460 nm).

Calpain I = target: T4, Calpain I (Homo sapiens, UniProt P07384); assay: Inhibition of calpain I (cysteine protease) activity; conditions: 0.2 mM Succ-Leu-Tyr-MNA, pH 7.5, CaCl2 start
T4 construct: made in house
T4 sequence (P07384 1-714): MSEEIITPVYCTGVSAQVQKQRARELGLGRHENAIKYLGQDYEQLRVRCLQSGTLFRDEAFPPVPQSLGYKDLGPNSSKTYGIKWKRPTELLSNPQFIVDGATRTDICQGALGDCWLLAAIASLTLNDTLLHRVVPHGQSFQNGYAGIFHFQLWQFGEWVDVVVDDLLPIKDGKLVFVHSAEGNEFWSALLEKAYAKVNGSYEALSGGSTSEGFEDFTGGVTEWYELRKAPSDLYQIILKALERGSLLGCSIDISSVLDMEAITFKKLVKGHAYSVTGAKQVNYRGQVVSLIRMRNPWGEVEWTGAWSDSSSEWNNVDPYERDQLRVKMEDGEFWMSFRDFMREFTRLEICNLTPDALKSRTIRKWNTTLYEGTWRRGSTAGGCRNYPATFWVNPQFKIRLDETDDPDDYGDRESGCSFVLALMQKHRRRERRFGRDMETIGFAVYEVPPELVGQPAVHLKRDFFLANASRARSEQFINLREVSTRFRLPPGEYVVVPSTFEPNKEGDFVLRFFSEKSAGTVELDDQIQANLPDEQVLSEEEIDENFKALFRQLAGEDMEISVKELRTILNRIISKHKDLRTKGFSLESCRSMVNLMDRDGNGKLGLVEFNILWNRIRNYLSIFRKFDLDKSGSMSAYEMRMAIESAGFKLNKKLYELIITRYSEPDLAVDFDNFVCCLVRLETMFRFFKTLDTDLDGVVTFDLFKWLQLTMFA
T4 sequence (P04632 1-268 partner): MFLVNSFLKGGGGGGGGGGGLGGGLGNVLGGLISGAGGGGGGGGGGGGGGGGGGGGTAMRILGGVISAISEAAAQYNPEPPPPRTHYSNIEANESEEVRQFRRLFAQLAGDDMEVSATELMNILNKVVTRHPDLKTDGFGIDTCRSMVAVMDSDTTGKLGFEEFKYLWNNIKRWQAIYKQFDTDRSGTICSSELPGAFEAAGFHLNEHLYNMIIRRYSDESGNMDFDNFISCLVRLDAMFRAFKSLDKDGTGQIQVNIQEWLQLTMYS
Protocol: To evaluate inhibitory activity, stock solutions (40 times concentrated) of each compound to be tested were prepared in 100% anhydrous DMSO and 5 μL of each inhibitor preparation were aliquoted into each of three wells of a 96-well plate. Calpain I, prepared by a modification of the method of W. J. Lee et al. (Biochem. […] To start the reaction, 20 μL of 50 mM CaCl2 in assay buffer was added to all wells of the plate, excepting three, which were used as background signal baseline controls. Substrate hydrolysis was monitored every 5 minutes for a total of 30 minutes using a Fluoroskan II fluorescence plate reader. Substrate hydrolysis in the absence of inhibitor was linear for up to 15 minutes. Inhibition of calpain I activity was calculated as the percent decrease in the rate of substrate hydrolysis in the presence of inhibitor relative to the rate in its absence. Comparison between the inhibited and control rates was made within the linear range for substrate hydrolysis. For screening, compounds were tested at 10 μm. Compounds having 50% inhibition at 10 μM were considered active. […] The results were plotted as % inhibition versus log inhibitor concentration and the IC50 was calculated from linear regression of the data.

α-chymotrypsin = target: T5, α-chymotrypsin (Bos taurus, UniProt P00766); assay: Inhibition of α-chymotrypsin (serine protease) activity; conditions: 10 μM inhibitor; 0.03 mM SuccAla-Ala-Pro-Phe-AMC, pH 7.5; read-out: Chymotrypsin % I @ 10 μM
T5 construct: purchased Sigma Chem. Co. C-3142
Protocol: as §1, §2, §3

T1 sequence (P07711 114-288 limits assumed): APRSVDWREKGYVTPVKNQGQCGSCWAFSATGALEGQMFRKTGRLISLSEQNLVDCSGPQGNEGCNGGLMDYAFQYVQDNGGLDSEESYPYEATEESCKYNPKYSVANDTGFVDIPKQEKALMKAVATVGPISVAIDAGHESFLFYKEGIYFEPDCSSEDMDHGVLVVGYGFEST
T1 sequence (P07711 292-333 limits assumed): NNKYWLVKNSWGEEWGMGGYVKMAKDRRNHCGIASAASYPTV

| SMILES | pIC50 (cathepsin L) | inhibition at 10 µM (thrombin) [%] | pIC50 (cathepsin B) | pIC50 (Calpain I) | inhibition at 10 µM (α-chymotrypsin) [%] |
| --- | --- | --- | --- | --- | --- |
| CC(C)C[C@@H](CCS(=O)(=O)c1ccc2ccccc2c1)C(=O)N[C@H](C=O)CC(C)C [Compound 9, 2-Naphthylsulfonyl--CH2 CH2 CH(iBu)CO--Leu--H] | 7.49 | 2 | 5.35 | 6.30 | 12 |
| CC(C)C[C@H](CCS(=O)(=O)c1ccc2ccccc2c1)C(=O)N[C@H](C=O)CC(C)C [Compound 10, 2-Naphthylsulfonyl--CH2 CH2 CH(iBu)CO--Leu--H] | 8.52 | 1 | 6.82 | 7.30 | 11 |
| CC(C)CC(CCSc1ccc2ccccc2c1)C(=O)N[C@H](C=O)CC(C)C (some centres unmarked) [Compound 11, 2-Naphthyl--SCH2 CH2 CH(iBu)CO--Leu--H] | 8.10 | 5 | 7.22 | 7.12 | 11 |
| CC(C)CC(CC[S+]([O-])c1ccc2ccccc2c1)C(=O)N[C@H](C=O)CC(C)C (some centres unmarked) [Compound 13, 2-Naphthyl--S(O)--CH2 CH2 CH(iBu)CO--Leu--H] | 8.52 | 2 | 7.22 | 7.52 | 18 |
